Entries after “also recorded” stand apart in the source; their conditions may differ.
Key:
[1] = test system: Lgr5+ supporting cells isolated from the cochlea; assay: Expansion of Lgr5-GFP inner ear progenitor cells in Matrigel based 3D culture; type: cell-based, mouse; settings: for Lgr5-GFP expression, effect of addition / cell proliferation, effect of addition: neonatal Lgr5 inner ear progenitor cells; for use in place of VPA: data not shown; for importance of the factor for Lgr5-GFP expression / importance of the factor for cell proliferation: factor removed from the culture medium; for GFP+ cell number / GFP+ percentage / total number of cells: named factor removed from EFICVP6, 10 days
Experimental: Cell culture: Heterozygous Lgr5-EGFP-IRES-CreERT2 mice were obtained from Jackson Labs, and neonatal P2-P5 mice were used for cell isolation. Organ of Corti was isolated from Lgr5-GFP mice and further dissociated into single cells using trypsin. Cells were then cultured as previously described (Yin et al, 2014). Briefly, cells were entrapped in Matrigel and plated at the center of wells in a 24-well plate. Following polymerization of Matrigel, 500 μl of culture media (Advanced DMEM/F12 with N2 and B27) was added, containing growth factors including EGF (50 ng/ml) (epidermal growth factor), bFGF (20 ng/ml) (fibroblast growth factor), and IGF1 (50 ng/ml) (insulin-like growth factor 1), and small molecules including CHIR99021 (5 μM), valproic acid (1 mM), 2-phospho-L-ascorbic acid (280 μM), and 616452 (2 μM). Y-27632 (10 μM) was added for the first 2 days. In some experiments, bFGF was used at 50 ng/ml.
For single cell isolation, the organs of Corti were then treated with Cell Recovery Solution (Corning) for 1 h to separate cochlear epithelium from the underlying mesenchyme. Epithelia were then collected and treated with Trypsin (Life Technologies) for 15-20 minutes at 37° C. Single cells obtained by mechanical trituration were filtered by cell strainer (40 μm) and washed with cell culture media. For FACS sorting of Lgr5-high and Lgr5-Low cells, FACS ARIA (BD) was used and Lgr5-GFP was used as indicator of Lgr5 level. Sorted single cells were cultured in Matrigel in inner ear cell culture media with supplement growth factors and small molecules. Y-27632 was added in the first 2 days.
FACS analysis: Cell culture media was removed and Trypsin was added. After incubation at 37° C. for 10-20 min, colonies were dissociated into single cells. Live-cell number were counted using a hemocytometer and trypan blue staining. The cells were then stained with propidium iodide (PI) and analyzed with flow cytometry. The number of GFP-positive cells was calculated by multiplying the total number of cells by the percentage of GFP-positive cells.

[2] = test system: expanded Lgr5-positive cells; assay: Differentiation of expanded Lgr5-positive cells to hair cells; type: cell-based, mouse; settings: for effect on differentiation of hair cells: in differentiation media
Experimental: Differentiation protocol: For differentiation of expanded Lgr5-positive cells, following 10 days of culture in the cell expansion condition (EFICVP6), the cell colonies were transferred to fresh Matrigel and further cultured in differentiation media. Differentiation media contains Notch pathway inhibitor (e.g. DAPT, D, 5 μM, or LY411575, LY, 5 μM), with or without Gsk3β inhibitor (e.g. CHIR99021). Media were changed every other day. Following another 6-10 days of incubation with differentiation media, the colonies were harvested for qPCR analysis or fixed with 4% PFA and immunostained with hair cell markers Myo7a and Prestin.
RNA extraction and quantitative real-time PCR (qPCR): RNA was isolated from cultured cells (RNeasy Mini Kit; Qiagen) according to the manufacturer's protocol. Quantitative real-time PCR was performed with QuantiTect Probe PCR kit (Qiagen) using commercially available primers and TaqMan probes (Myo7a and Hprt Life Technologies).
Immunocytochemistry staining: Colonies were fixed at room temperature in 4% paraformaldehyde/PBS for 15-20 min and then washed twice with PBS containing 0.1% BSA. Cells were then permeabilized with 0.25% Triton X-100 in PBS in 4° C. for 30 minutes. Following 2 washes with PBS containing 0.1% BSA, the cells were incubated with blocking solution (Power Block, Biogenex) for 1 h. Diluted primary antibodies (in Power Block solution) was applied for 4 h at room temperature or overnight at 4° C. Primary antibodies used were Myosin VIIA (1:500, Rabbit polyclonal from Proteus Biosciences) and Prestin (1:400, Goat polyclonal from Santa Cruz). After 3 washes for 5 minutes each, secondary antibodies (Alexafluor 594 and 647-conjugated; Invitrogen) were added at 1:500 dilution and incubated at room temperature for 30 minutes. Nuclei were visualized with 4,6-diamidino-2-phenylindole (DAPI, Vector Laboratories). Staining was visualized with inverted fluorescence microscope (EVOS; Advanced Microscopy Group).

patients = settings: cited from earlier work
[3] = named factor removed, versus EFICVP6

Compound: Cc1cc(N2CCOCC2)cc2[nH]c(-c3c(NC[C@@H](O)c4cccc(Cl)c4)cc[nH]c3=O)nc12 [BMS536924]
- Lgr5-GFP expression, effect of addition [1]: does not promote the expression of Lgr5-GFP

Compound: C[C@@H]1CCN(C(=O)CC#N)C[C@@H]1N(C)c1ncnc2[nH]ccc12 [Tofacitinib]
- Lgr5-GFP expression, effect of addition [1]: does not promote the expression of Lgr5-GFP

Compound: CC(C)(C)OC(=O)Nc1ccc(-c2cc(C(=O)NCCCCCCC(=O)NO)no2)cc1 [CAY10603]
- use in place of VPA [1]: does not work

Compound: bFGF: basic fibroblast growth factor
- effect on differentiation of hair cells [2]: inhibit the differentiation of hair cells
- importance of the factor for Lgr5-GFP expression [1]: less important for GFP expression; also recorded: important for GFP expression
- importance of the factor for cell proliferation [1]: important for cell proliferation; also recorded: greatly impacted cell proliferation; also recorded: greatest effect on proliferation; also recorded: important to promote cell proliferation
- GFP+ cell number [1]: 1.4×10^4 cells
- GFP+ percentage [1]: 32%
- decrease of GFP+ cell number [1, 3]: 20 fold
- decrease of GFP+ percentage [1, 3]: ~2 fold
- decrease of total cell number [1, 3]: 10 fold
- cell proliferation, effect of addition [1]: promotes the proliferation of Lgr5 inner ear progenitor cells; also recorded: increased cell proliferation

Compound: [H]/N=C(/N)N[C@H]1[C@H](O)[C@@H](O)[C@H](O[C@@H]2O[C@@H](C)[C@](O)(C=O)[C@H]2O[C@@H]2O[C@@H](CO)[C@H](O)[C@@H](O)[C@@H]2NC)[C@@H](N/C(N)=N\[H])[C@@H]1O [streptomycin]
- incidence of vestibular impairment (patients; 1 gram per day): 25%
- patients with some vestibular impairment (patients; 2 grams daily for 60 to 120 days): ~75%

Compound: EGF: epidermal growth factor (NSDSECPLSHDGYCLHDGVCMYIEALDKYACNCVVGYIGERCQYRDLKWWELR; UniProt P01133 971-1023, looked up)
- effect on differentiation of hair cells [2]: inhibit the differentiation of hair cells
- importance of the factor for Lgr5-GFP expression [1]: less important for GFP expression
- importance of the factor for cell proliferation [1]: important for cell proliferation; also recorded: greater impact on cell proliferation; also recorded: significant reduction in proliferation; also recorded: important to promote cell proliferation
- decrease of GFP+ cell number [1, 3]: ~2 fold
- decrease of total cell number [1, 3]: ~2 fold

Compound: Nc1ncnc2c1c(I)cn2[C@@H]1O[C@H](CO)[C@@H](O)[C@H]1O [5IT]
- Lgr5-GFP expression, effect of addition [1]: does not promote the expression of Lgr5-GFP

Compound: CO[C@@H]1[C@H](N(C)C(=O)c2ccccc2)C[C@H]2O[C@]1(C)n1c3ccccc3c3c4c(c5c6ccccc6n2c5c31)C(=O)NC4 [PKC412]
- Lgr5-GFP expression, effect of addition [1]: does not promote the expression of Lgr5-GFP

Compound: O=C(NOC[C@H](O)CO)c1ccc(F)c(F)c1Nc1ccc(I)cc1F [PD0325901]
- Lgr5-GFP expression, effect of addition [1]: does not promote the expression of Lgr5-GFP

Compound: N.N.[Cl][Pt][Cl] [Cisplatin]
- high frequency hearing loss (>8 kHZ) (patients; human, in vivo): ≤ 90%

Compound: Laminin 511: added into Matrigel
- Lgr5-GFP expression, effect of addition [1]: promotes GFP expression

Compound: Cc1cc(NC(=O)c2cccc(NC(=O)/C=C/CN(C)C)c2)ccc1Nc1nccc(-c2cccnc2)n1 [JNK-IN8]
- Lgr5-GFP expression, effect of addition [1]: does not promote the expression of Lgr5-GFP

Compound: CNC(=O)c1ccc(C)c(-n2c(C)cc(OCc3ccc(F)cc3F)c(Br)c2=O)c1 [PH797804]
- Lgr5-GFP expression, effect of addition [1]: does not promote the expression of Lgr5-GFP

Compound: CN1CCc2c(c3ccccc3n2Cc2ccc(C(=O)NO)cc2)C1 [Tubastatin A]
- use in place of VPA [1]: does not work

Compound: IGF-1: insulin like growth factor 1
- effect on differentiation of hair cells [2]: inhibit the differentiation of hair cells
- importance of the factor for Lgr5-GFP expression [1]: marginal effect on cell proliferation or GFP maintenance
- importance of the factor for cell proliferation [1]: marginal effect on cell proliferation or GFP maintenance; also recorded: marginal effect to promote cell proliferation
- importance of the factor for Lgr5-GFP expression ([1]; listed as IGF): marginal beneficial effect in promoting cell proliferation and GFP expression
- importance of the factor for cell proliferation ([1]; listed as IGF): marginal beneficial effect in promoting cell proliferation and GFP expression
- importance of the factor for Lgr5-GFP expression ([1]; listed as IGF1): marginal beneficial effect on cell proliferation and Lgr5 expression
- importance of the factor for cell proliferation ([1]; listed as IGF1): marginal beneficial effect on cell proliferation and Lgr5 expression
- GFP+ percentage [1]: 53%
- total number of cells [1]: 4.1×10^5 cells

Compound: Cc1ccc2nc(NC(=O)CSc3nc4c(c(=O)n3-c3ccccc3)SCC4)sc2c1 [IWP-2]
- hair cell generation (Myosin VIIA and Prestin staining) ([2]; 10 days of differentiation): hair cell generation is rarely observed from cultured inner ear progenitor cells

Compound: Cc1cccc(-c2n[nH]cc2-c2ccc3ncccc3n2)n1 [compound 616452, 2-(3-(6-Methylpyridin-2-yl)-1H-pyrazol-4-yl)-1,5 napththyridine]
- effect on differentiation of hair cells [2]: inhibit the differentiation of hair cells
- passage / extended culture of the cells [1]: enables the passage of cultured inner ear progenitor cells; also recorded: enables extended culture of the cells
- passage of colonies [1]: up to 5 generations
- colony size and GFP intensity ([1]; added on EFICVP): increases the intensity of Lgr5-GFP and the size of colonies; also recorded: tend to grow larger and possess brighter GFP expression than that in control conditions
- importance of the factor for cell proliferation [1]: greater impact on cell proliferation; also recorded: significant reduction in proliferation; also recorded: important to promote cell proliferation
- GFP+ cell number [1]: 9.8×10^4 cells
- total number of cells [1]: 1.7×10^5 cells
- decrease of GFP+ cell number [1, 3]: ~3 fold
- decrease of total cell number [1, 3]: ~3 fold
- Lgr5-GFP expression, effect of addition [1]: does not promote the expression of Lgr5-GFP; also recorded: didn't increase Lgr5-GFP expression
- cell proliferation, effect of addition [1]: promotes the proliferation of Lgr5 inner ear progenitor cells

Compound: CCOC(=O)C1=C(N)Oc2ccc(Cl)cc2C1C(C#N)C(=O)OCC (stereo not shown) [SC79]
- Lgr5-GFP expression, effect of addition [1]: does not promote the expression of Lgr5-GFP

Compound: O=C(CCCCCCNC(=O)c1cnc(N(c2ccccc2)c2ccccc2)nc1)NO [ACY1215]
- use in place of VPA [1]: does not work

Compound: c1ccc2c(-c3cnn4cc(-c5ccc(N6CCNCC6)cc5)cnc34)ccnc2c1 [LDN193189]
- Lgr5-GFP expression, effect of addition [1]: does not promote the expression of Lgr5-GFP; also recorded: greatly decreased Lgr5-GFP expression

Compound: O=c1ncn2nc(Sc3ccc(F)cc3F)ccc2c1-c1c(Cl)cccc1Cl [VX745]
- Lgr5-GFP expression, effect of addition [1]: does not promote the expression of Lgr5-GFP

Source: patent US11369607B2, “Compositions, systems, and methods for generating inner ear hair cells for treatment of hearing loss” (Massachusetts Institute of Technology, priority 2014, dated 2022)
